These results are taken from US20180078569A1, “KITS FOR INDENTIFYING AND TREATING SUBJECTS RESISTANT TO ACETYL SALICYLIC ACID” (priority 2006, published 2018).

Series [1] concerns the target T1, MRP4-mediated transport (Homo sapiens, UniProt O15439).
T1 construct: endogenous in cells; host or cells: washed platelets (and a dense-granule suspension made from them) from donors' venous blood
T1 sequence (O15439 1-1325): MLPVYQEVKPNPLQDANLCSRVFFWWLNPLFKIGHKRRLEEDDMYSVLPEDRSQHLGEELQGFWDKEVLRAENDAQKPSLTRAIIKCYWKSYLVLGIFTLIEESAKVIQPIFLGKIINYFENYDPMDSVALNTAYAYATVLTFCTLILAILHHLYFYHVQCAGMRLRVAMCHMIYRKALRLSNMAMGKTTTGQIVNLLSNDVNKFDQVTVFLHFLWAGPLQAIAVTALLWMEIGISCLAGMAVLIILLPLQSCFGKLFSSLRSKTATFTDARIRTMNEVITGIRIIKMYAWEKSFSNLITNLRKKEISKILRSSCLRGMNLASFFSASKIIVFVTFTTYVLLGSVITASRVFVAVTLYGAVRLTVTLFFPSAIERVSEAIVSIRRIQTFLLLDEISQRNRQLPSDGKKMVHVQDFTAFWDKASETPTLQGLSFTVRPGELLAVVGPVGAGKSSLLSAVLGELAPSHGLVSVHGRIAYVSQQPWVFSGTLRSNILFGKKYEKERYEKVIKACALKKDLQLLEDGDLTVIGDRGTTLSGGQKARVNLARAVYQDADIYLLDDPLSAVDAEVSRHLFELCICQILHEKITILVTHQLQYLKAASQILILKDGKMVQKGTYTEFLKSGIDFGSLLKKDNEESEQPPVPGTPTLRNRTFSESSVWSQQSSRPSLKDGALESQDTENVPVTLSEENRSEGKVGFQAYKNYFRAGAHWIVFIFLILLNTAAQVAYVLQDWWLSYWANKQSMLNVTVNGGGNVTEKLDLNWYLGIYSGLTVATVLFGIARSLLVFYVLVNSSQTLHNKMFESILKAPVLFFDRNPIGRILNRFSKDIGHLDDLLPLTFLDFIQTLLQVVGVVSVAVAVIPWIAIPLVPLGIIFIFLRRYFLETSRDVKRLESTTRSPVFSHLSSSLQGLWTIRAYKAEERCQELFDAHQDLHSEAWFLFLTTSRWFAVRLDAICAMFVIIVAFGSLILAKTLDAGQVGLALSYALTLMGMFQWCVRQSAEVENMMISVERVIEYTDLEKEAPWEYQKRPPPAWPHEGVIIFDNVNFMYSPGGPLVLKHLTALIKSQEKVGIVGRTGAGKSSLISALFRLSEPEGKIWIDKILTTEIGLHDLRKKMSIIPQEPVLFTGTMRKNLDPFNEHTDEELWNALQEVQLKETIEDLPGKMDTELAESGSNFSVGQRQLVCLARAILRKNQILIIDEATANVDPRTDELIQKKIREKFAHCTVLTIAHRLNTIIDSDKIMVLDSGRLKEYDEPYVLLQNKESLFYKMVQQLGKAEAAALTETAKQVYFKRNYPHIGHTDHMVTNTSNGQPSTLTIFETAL
Kind of series: Cytosolic concentrations of ASA and salicylic acid in platelets incubated with ASA (HPLC). Format: cell-based. The conditions noted are these: for cytosolic concentration of acetylsalicylic acid (ASA) / cytosolic concentration of metabolite salicylic acid: platelets pretreated with inhibitor (dipyridamole 100 microM) 10 minutes before ASA 50 microM, compared to platelets treated with solvent alone (DMSO). The text has this: (§1) 1987, 9, 243-7) and a beta-counter for measuring the radioactive aspirin.
Dipyridamole, in addition to inhibiting the transport mediated by these channels, is also an inhibitor of platelet activity, in that it increases the platelet concentrations of AMPc, inhibiting phosphodiesterase isoform V (PDE typeV).
(§2) The PRP was then subjected to platelet count through blood cell count Celltac Auto Nihon Kohden (MEK 8118K). The platelets were then moved away from plasma through centrifugation of PRP, acidified at pH 6.5 with ACD (citric acid, sodium citrate and glucose 1/10 v/v), at 800×g for 10 min. and resuspended in Tyrode's buffer (CaCl2 0.20 g/L, KCl 0.20 g/L, […], NaCl 8.00 g/L, NaH2PO4*H2O), at pH 7.35 and charged with glucose and albumin. The preparation of a dense rich platelet granule suspension was made according to the method reported by (Fukami M H et al. J. Cell. Biol. 1978, 77, 389-99) and the degree of purity was verified through mepacrine Fluorimetric probe and the purity percentage was checked through the cytofluorimeter. If the concentration of the dense granules compared to the other organelles was lower than 80%, the suspension of platelet granules was not used for the study.
The resuspended platelets in the Tyrode's buffer at the concentration of 2.5×10^8 cells/ml were treated with aspirin (50 microM) at 10° C. for 15 min and then kept at 37° C. or at 4° C. for 15 min. […]
(§3) The entrapment of aspirin inside platelets or in the dense granules was measured through the method of Gaspari and Locatelli (Ther Drug Monit. 1987, 9, 243-7).

The target in series [2] is T1, MRP4-mediated transport. Kind of series: ASA concentration in platelet dense granule preparation treated with ASA and ATP. In kind it is cell-based. The protocol:
as §1, §2
In the rich platelet dense granule suspension, ATP and ASA were added to the preparation, then it was kept at 37° C. for 15 min so a to reduce the transpost mediated by MRP4; the suspension was pretreated either with apyrase, an ATP scavenger substance or with Dipyridamole 30 min before adding aspirin, or the treatment with aspirin was made at 4° C.
as §3

Series [3] concerns the target T2, COX-1 (Homo sapiens, UniProt P23219).
T2 construct: prostaglandin H synthase, an enzyme present in platelets and commonly defined as COX-1; endogenous in cells; host or cells: washed platelets from donors' venous blood (healthy volunteers; patients 5 days after aorto-coronary bypass)
Put plainly: Thrombin-induced thromboxane production of aspirinated platelets (TxB2 ELISA). Format: cell-based. The conditions noted are these: for thrombin-induced production of thromboxane: aspirinated platelets, with or without inhibitor added prior to ASA; for reduction of thromboxane production: inhibitor added prior to ASA, versus aspirinated platelets not pretreated. The method, then: The resuspended platelets in the Tyrode's buffer at the concentration of 2.5×10^8 cells/ml were treated with aspirin (50 microM) at 10° C. for 15 min and then kept at 37° C. or at 4° C. for 15 min.
MRP4 inhibitors were used such as Dipyridamole and MK571 ((E)-3-[[[3-[2-(7-chloro-2-quinolinyl)ethenyl]phenyl]-[[3-dimethylamino)-3-oxo-propyl]-thio]-methyl]thio]-propanoic acid), both at 100 microM and incubated 30 min at RT before aspirin addition.
(§4) The evaluation of the biologic efficacy of aspirin in platelets was made by studying Thromboxane A2 production, a specific marker of the cyclooxygenase pathway in platelets. Aspirin and/or Dipyridamole treated platelets (see above) were activated with thrombin 1 U/ml for 1 h at 37° C., and then centrifugated 1 min at 8.000 g. Thromboxane B2, a stable metabolite of TXA2, was measured in the supernatant through a commercial ELISA kit (Cayman, chemicals Co).

The target of series [4] is T2, COX-1. Put plainly: Thrombin-induced thromboxane production in platelets from bypass patients treated in vitro. In kind it is cell-based. The following applies: for thromboxane production induced by thrombin: platelets from patients subjected to aorto-coronary bypass, treated in vitro. The method, then: patients at 5 days from an aortic-coronary-bypass.
as §4

The conditions of series [5]: oral administration; cited from earlier work.
Series [6] relates to cardiovascular complications. The conditions noted are these: daily intake 75-150 mg/day, patients who previously had coronary disease; cited from earlier work.
Series [7] concerns the target T1, MRP4-mediated transport. Kind of series: Release of 14C-labelled ASA and of ATP from thrombin-activated platelets. Format: cell-based. The conditions noted are these: platelets pretreated with dipyridamole.
Experimental: Aspirin labelled with 14C (American Radiolabeled Chemicals, Inc. Saint Louis, USA) was added to the platelet suspension for 15 min at 37° C. After removing the excess of the substance marked by double centrifugation, the platelets were activated with Thrombin (0.2 U/ml) and then centrifugated. The reduction of the transport mediated by MRP4 was made through the preincubation of the platelet preparation with Dipyridamole 30 min before aspirin addition. The results are reported by evaluating the percentage of the radioactive present in the supernatant compared to the total radioactivity of the platelet preparation. ATP secretion was analyzed as a control through the luminometric method with commercial kit (Chronolog, Hevertown, Pa., USA).
[8] abbreviates: treatment of platelets with ASA at 4° C. instead of 37° C.
Where [9] appears, read: pretreatment before ASA, relative to maximum obtained with ATP in external medium at 37° C.

T2 sequence (P23219 24-599): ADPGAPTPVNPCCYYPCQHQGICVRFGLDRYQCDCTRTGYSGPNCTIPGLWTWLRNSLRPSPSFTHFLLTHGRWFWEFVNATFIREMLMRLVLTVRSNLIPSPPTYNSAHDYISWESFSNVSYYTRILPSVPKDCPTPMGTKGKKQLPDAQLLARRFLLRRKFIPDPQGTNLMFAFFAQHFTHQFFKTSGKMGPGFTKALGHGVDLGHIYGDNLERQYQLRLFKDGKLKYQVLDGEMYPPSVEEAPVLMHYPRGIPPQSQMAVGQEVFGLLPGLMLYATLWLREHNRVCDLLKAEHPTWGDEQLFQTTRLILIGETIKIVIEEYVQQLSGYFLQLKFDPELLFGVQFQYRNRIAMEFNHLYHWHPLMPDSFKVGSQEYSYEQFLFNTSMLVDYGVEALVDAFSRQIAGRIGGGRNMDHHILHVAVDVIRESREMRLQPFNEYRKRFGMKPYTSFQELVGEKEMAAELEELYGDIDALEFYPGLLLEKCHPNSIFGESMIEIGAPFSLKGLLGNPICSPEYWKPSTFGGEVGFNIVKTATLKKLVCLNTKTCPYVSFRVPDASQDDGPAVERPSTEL

Turning to `CC(=O)Oc1ccccc1C(=O)O` [ASA, acetylsalicylic acid], on MRP4-mediated transport [1] (setting [8]), the “increase of cytosolic concentration of ASA” value amounted to 240% and the “increase of cytosolic concentration of salicylate” value turned out to be 160%. Further, the “ASA concentration in platelet granules” value at MRP4-mediated transport [2] (incubation of ASA at 4° C., relative to maximum obtained with ATP at 37° C.) is given as 53.6%. Further, the “thrombin-induced production of thromboxane” value (from here on “thrombin-induced production”) on COX-1 [3] worked out at 343.7 ng/10^8 cells. Also, on COX-1 [4], the “thromboxane production induced by thrombin” value amounted to 1437.0±549.1 ng/10^8 cells. Moreover, in series [5], the bioavailability is on record as 40-50%, the half-life is 15 to 20 min, the “plasma concentration peak registered after” value was 30 to 40 min and the “platelet inhibition manifested after administration” value is reported as “one”. Further, the “reduction of the risk of cardiovascular complications (myocardial infarction, cerebral infarction and vascular death)” value in series [6] is 25%.
Regarding `CN(C)C(=O)CCSC(SCCC(=O)O)c1cccc(/C=C/c2ccc3ccc(Cl)cc3n2)c1` (centres unmarked) [MK-571], at MRP4-mediated transport [1], the “cytosolic concentration of acetylsalicylic acid (ASA)” value (from here on “cytosolic concentration … (ASA)”) was 208% and the “cytosolic concentration of metabolite salicylic acid” value was 202%. At COX-1 [3], the “thrombin-induced production” value is 140.22 ng/10^8 cells and the “reduction of thromboxane production” value worked out at 59.2%.
Turning to `Clc1cccc(Nc2nnc(-c3ccccc3)c3ccccc23)c1` [MY-5445, 1-(3-chlorophenylamino)-4-phenylphthalazine], at MRP4-mediated transport [1], the “cytosolic concentration … (ASA)” value is 110% and the “cytosolic concentration of metabolite salicylic acid” value is recorded as 120%.
Turning to `OCCN(CCO)c1nc(N2CCCCC2)c2nc(N(CCO)CCO)nc(N3CCCCC3)c2n1` [dipyridamole, 2,6-bis-(diethanolamino)-4,8-dipiperidino-(5,4-d)-pyrimidine], at MRP4-mediated transport [1], the “cytosolic concentration … (ASA)” value was 285% and the “cytosolic concentration of metabolite salicylic acid” value is 293%. The “ASA concentration in platelet granules” value on MRP4-mediated transport [2] (setting [9]) is on record as 41.7%. Also, on MRP4-mediated transport [7] (thrombin 0.2 U/ml), the “release of radiolabelled ASA after activation with thrombin” value is “absent”. Moreover, the “ATP released by the platelets” value on MRP4-mediated transport [7] (thrombin-activated) was 1.8 ± 0.3 nmol. Further, on COX-1 [3], the “thrombin-induced production” value is listed as 142.7 ng/10^8 cells and the “reduction of thromboxane production” value came to 58%. Moreover, the “thromboxane production with respect to platelets treated with aspirin alone” value on COX-1 [4] (platelets from bypass patients pretreated in vitro before aspirin) is 35%. Besides, the “thromboxane production induced by thrombin” value at COX-1 [4] is 499.8±247.7 ng/10^8 cells.
Turning to apyrase, at MRP4-mediated transport [2] (setting [9]), the “ASA concentration in platelet granules” value is 56.1%.
